In brackets after ≈: the same amount, converted by molar mass.
Experiments:
Format in all cases: cell-based
Ent. cloacae IFO 13535 = experiment: MIC by agar dilution, Ent. cloacae IFO 13535; conditions: Enterobacter cloacae, IFO13535, 17 h; Ent. cloacae IFO 13535; agar dilution, Mueller-Hinton agar; read-out: Minimal Inhibitory Concentration (MIC)
Method: (§1) These MIC values were determined by agar dilution method: that is, two-fold dilutions of each of the test compounds were made and dispersed in a Mueller-Hinton agar medium; standard test strain which had the 10^6 CFU (Colony Forming Unit) per ml was inoculated on the medium with microplanter (Toyo, Japan), and incubated at 35°-37° C. for 17±1 hours. The structures of Ceftazidime (CAZ) and Cefotaxime (CTX) which are used as control compounds are as follows: [drawing 12]

Staph. aureus C-5216 = experiment: MIC by agar dilution, Staph. aureus C-5216; conditions: Staphylococcus aureus, C5216, 17 h, Mueller-Hinton agar, read-out: Minimal Inhibitory Concentration (MIC)
Method: as §1

Staph. aureus C-57 = experiment: MIC by agar dilution, Staph. aureus C-57; conditions: Staphylococcus aureus, C57, 17 h, Mueller-Hinton agar, read-out: Minimal Inhibitory Concentration (MIC)
Method: as §1

[1] = tested on: Ps. aeruginosa ATCC 10145; experiment: MIC by agar dilution, Ps. aeruginosa ATCC 10145; conditions: Pseudomonas aeruginosa, ATCC10145, 17 h, Mueller-Hinton agar, read-out: Minimal Inhibitory Concentration (MIC)
Method: as §1

E. coli NIHJ JC-2 = experiment: MIC by agar dilution, E. coli NIHJ JC-2; conditions: Escherichia coli, NIHJJC2, 17 h; E. coli NIHJ JC-2; agar dilution, Mueller-Hinton agar; read-out: Minimal Inhibitory Concentration (MIC)
Method: as §1

B. subtilis ATCC 6633 = experiment: MIC by agar dilution, B. subtilis ATCC 6633; conditions: Bacillus subtilis, ATCC6633, 17 h; B. subtilis ATCC 6633; agar dilution, Mueller-Hinton agar; read-out: Minimal Inhibitory Concentration (MIC)
Method: as §1

Ps. aeruginosa DY-2 = experiment: MIC by agar dilution, Ps. aeruginosa DY-2; conditions: Pseudomonas aeruginosa, DY2, 17 h; Ps. aeruginosa DY-2; agar dilution, Mueller-Hinton agar; read-out: Minimal Inhibitory Concentration (MIC)
Method: as §1

E. coli No. 29 = experiment: MIC by agar dilution, E. coli No. 29; conditions: Escherichia coli, 17 h; E. coli No. 29; agar dilution, Mueller-Hinton agar; read-out: Minimal Inhibitory Concentration (MIC)
Method: as §1

[2] = tested on: S. epidermidis ATCC 12228; experiment: MIC by agar dilution, S. epidermidis ATCC 12228; conditions: Staphylococcus epidermidis, ATCC12228, 17 h; S. epidermidis ATCC 12228; agar dilution, Mueller-Hinton agar; read-out: Minimal Inhibitory Concentration (MIC)
Method: as §1

M. morganii DY-1 = experiment: MIC by agar dilution, M. morganii DY-1; conditions: Morganella morganii, DY1, 17 h; M. morganii DY-1; agar dilution, Mueller-Hinton agar; read-out: Minimal Inhibitory Concentration (MIC)
Method: as §1

E. coli DY-1 = experiment: MIC by agar dilution, E. coli DY-1; conditions: Escherichia coli, DY1, 17 h; E. coli DY-1; agar dilution, Mueller-Hinton agar; read-out: Minimal Inhibitory Concentration (MIC)
Method: as §1

Staph. aureus Smith = experiment: MIC by agar dilution, Staph. aureus Smith; conditions: Staphylococcus aureus, 17 h, Mueller-Hinton agar, read-out: Minimal Inhibitory Concentration (MIC)
Method: as §1

[3] = tested on: Ps. aeruginosa NCTC 10490; experiment: MIC by agar dilution, Ps. aeruginosa NCTC 10490; conditions: Pseudomonas aeruginosa, NCTC10490, 17 h, Mueller-Hinton agar, read-out: Minimal Inhibitory Concentration (MIC)
Method: as §1

Staph. aureus C-5113 = experiment: MIC by agar dilution, Staph. aureus C-5113; conditions: Staphylococcus aureus, C5113, 17 h, Mueller-Hinton agar, read-out: Minimal Inhibitory Concentration (MIC)
Method: as §1

Prov. stuartii IFO 12930 = experiment: MIC by agar dilution, Prov. stuartii IFO 12930; conditions: Providencia stuartii, IFO12930, 17 h, Mueller-Hinton agar, read-out: Minimal Inhibitory Concentration (MIC)
Method: as §1

P. vulgaris NCTC 8313 = experiment: MIC by agar dilution, P. vulgaris NCTC 8313; conditions: Proteus vulgaris, NCTC8313, 17 h; P. vulgaris NCTC 8313; agar dilution, Mueller-Hinton agar; read-out: Minimal Inhibitory Concentration (MIC)
Method: as §1

K. pneumoniae NCTC 9632 = experiment: MIC by agar dilution, K. pneumoniae NCTC 9632; conditions: Klebsiella pneumoniae, NCTC9632, 17 h; K. pneumoniae NCTC 9632; agar dilution, Mueller-Hinton agar; read-out: Minimal Inhibitory Concentration (MIC)
Method: as §1

Staph. aureus ATCC 6538P = experiment: MIC by agar dilution, Staph. aureus ATCC 6538P; conditions: Staphylococcus aureus, ATCC6538P, 17 h; Staph. aureus ATCC 6538P; agar dilution, Mueller-Hinton agar; read-out: Minimal Inhibitory Concentration (MIC)
Method: as §1

Ent. aerogenes IFO 12979 = experiment: MIC by agar dilution, Ent. aerogenes IFO 12979; conditions: Klebsiella aerogenes, IFO12979, 17 h, Mueller-Hinton agar, read-out: Minimal Inhibitory Concentration (MIC)
Method: as §1

[4] = tested on: Ser. marcescens IFO 12648; experiment: MIC by agar dilution, Ser. marcescens IFO 12648; conditions: Serratia marcescens, IFO12648, 17 h; Ser. marcescens IFO 12648; agar dilution, Mueller-Hinton agar; read-out: Minimal Inhibitory Concentration (MIC)
Method: as §1

| Structure (SMILES) | MIC (Ent. cloacae IFO 13535) [µg/mL] | MIC (Staph. aureus C-5216) [µg/mL] | MIC (Staph. aureus C-57) [µg/mL] | MIC [1] [µg/mL] | MIC (E. coli NIHJ JC-2) [µg/mL] | MIC (B. subtilis ATCC 6633) [µg/mL] | MIC (Ps. aeruginosa DY-2) [µg/mL] | MIC (E. coli No. 29) [µg/mL] | MIC [2] [µg/mL] | MIC (M. morganii DY-1) [µg/mL] | MIC (E. coli DY-1) [µg/mL] | MIC (Staph. aureus Smith) [µg/mL] | MIC [3] [µg/mL] | MIC (Staph. aureus C-5113) [µg/mL] | MIC (Prov. stuartii IFO 12930) [µg/mL] | MIC (P. vulgaris NCTC 8313) [µg/mL] | MIC (K. pneumoniae NCTC 9632) [µg/mL] | MIC (Staph. aureus ATCC 6538P) [µg/mL] | MIC (Ent. aerogenes IFO 12979) [µg/mL] | MIC [4] [µg/mL] |
| --- | --- | --- | --- | --- | --- | --- | --- | --- | --- | --- | --- | --- | --- | --- | --- | --- | --- | --- | --- | --- |
| CON=C(C(=O)NC1C(=O)N2C(C(=O)[O-])=C(C[n+]3ccn4c(Cl)ccc4c3)CSC12)c1csc(N)n1 (stereo not drawn) [Ex. 11, 7-β-[(Z)-2-(2-aminothiazol-4-yl)-2-methoxyiminoacetamido]-3-(6-chloropyrrolo[1,2-a]pyrazinium-2-yl)methyl-3-cephem-4-carboxylate] | 0.05 (≈ 0.0912 µM) | 0.78 (≈ 1.42 µM) | 12.5 (≈ 22.8 µM) | 0.78 (≈ 1.42 µM) | ≤ 0.006 | 0.1 (≈ 0.182 µM) | 3.13 (≈ 5.71 µM) | ≤ 0.006 | 0.025 (≈ 0.0456 µM) | ≤ 0.006 | ≤ 0.006 | 0.39 (≈ 0.712 µM) | 0.39 (≈ 0.712 µM) | 0.78 (≈ 1.42 µM) | ≤ 0.006 | ≤ 0.006 | ≤ 0.006 | 0.2 (≈ 0.365 µM) | ≤ 0.006 | 0.012 (≈ 0.0219 µM) |
| CCON=C(C(=O)NC1C(=O)N2C(C(=O)[O-])=C(C[n+]3ccn4c(Cl)ccc4c3)CSC12)c1csc(N)n1 (stereo not drawn) [Ex. 12, 7-β-[(Z)-2-(2-aminothiazol-4-yl)-2-ethoxyiminoacetamido]-3-(6-chloropyrrolo[1,2-a]pyrazinium-2-yl)methyl-3-cephem-4-carboxylate] | 0.39 (≈ 0.694 µM) | 0.78 (≈ 1.39 µM) | 12.5 (≈ 22.2 µM) | 1.56 (≈ 2.78 µM) | 0.05 (≈ 0.089 µM) | 0.1 (≈ 0.178 µM) | 6.25 (≈ 11.1 µM) | 0.012 (≈ 0.0214 µM) | 0.05 (≈ 0.089 µM) | 0.025 (≈ 0.0445 µM) | 0.012 (≈ 0.0214 µM) | 0.39 (≈ 0.694 µM) | 0.39 (≈ 0.694 µM) | 0.78 (≈ 1.39 µM) | 0.025 (≈ 0.0445 µM) | 0.012 (≈ 0.0214 µM) | 0.025 (≈ 0.0445 µM) | 0.2 (≈ 0.356 µM) | 0.025 (≈ 0.0445 µM) | 0.025 (≈ 0.0445 µM) |
| CON=C(C(=O)NC1C(=O)N2C(C(=O)[O-])=C(C[n+]3ccn4c(C#N)ccc4c3)CSC12)c1csc(N)n1 (stereo not drawn) [Ex. 13, 7-β-[(Z)-2-(2-aminothiazol-4-yl)-2-methoxyiminoacetamido]-3-(6-cyanopyrrolo[1,2-a]pyrazinium-2-yl)methyl-3-cephem-4-carboxylate] | 0.05 (≈ 0.0928 µM) | 0.78 (≈ 1.45 µM) | 25 (≈ 46.4 µM) | 0.78 (≈ 1.45 µM) | 0.012 (≈ 0.0223 µM) | 0.2 (≈ 0.371 µM) | 3.13 (≈ 5.81 µM) | 0.012 (≈ 0.0223 µM) | 0.1 (≈ 0.186 µM) | 0.025 (≈ 0.0464 µM) | 0.012 (≈ 0.0223 µM) | 1.56 (≈ 2.9 µM) | 0.39 (≈ 0.724 µM) | 0.78 (≈ 1.45 µM) | ≤ 0.006 | ≤ 0.006 | 0.025 (≈ 0.0464 µM) | 0.39 (≈ 0.724 µM) | 0.012 (≈ 0.0223 µM) | 0.012 (≈ 0.0223 µM) |

Continued by falling MIC (Ent. cloacae IFO 13535), values first:

| MIC (Ent. cloacae IFO 13535) [µg/mL] | MIC (Staph. aureus C-5216) [µg/mL] | MIC (Staph. aureus C-57) [µg/mL] | MIC [1] [µg/mL] | MIC (E. coli NIHJ JC-2) [µg/mL] | MIC (B. subtilis ATCC 6633) [µg/mL] | MIC (Ps. aeruginosa DY-2) [µg/mL] | MIC (E. coli No. 29) [µg/mL] | MIC [2] [µg/mL] | MIC (M. morganii DY-1) [µg/mL] | MIC (E. coli DY-1) [µg/mL] | MIC (Staph. aureus Smith) [µg/mL] | MIC [3] [µg/mL] | MIC (Staph. aureus C-5113) [µg/mL] | MIC (Prov. stuartii IFO 12930) [µg/mL] | MIC (P. vulgaris NCTC 8313) [µg/mL] | MIC (K. pneumoniae NCTC 9632) [µg/mL] | MIC (Staph. aureus ATCC 6538P) [µg/mL] | MIC (Ent. aerogenes IFO 12979) [µg/mL] | MIC [4] [µg/mL] | Structure (SMILES) |
| --- | --- | --- | --- | --- | --- | --- | --- | --- | --- | --- | --- | --- | --- | --- | --- | --- | --- | --- | --- | --- |
| 0.2 (≈ 0.331 µM) | 0.78 (≈ 1.29 µM) | 12.5 (≈ 20.7 µM) | 3.13 (≈ 5.18 µM) | 0.025 (≈ 0.0414 µM) | 0.1 (≈ 0.166 µM) | 3.13 (≈ 5.18 µM) | ≤ 0.006 | 0.05 (≈ 0.0828 µM) | 0.012 (≈ 0.0199 µM) | ≤ 0.006 | 0.1 (≈ 0.166 µM) | 0.2 (≈ 0.331 µM) | 0.39 (≈ 0.646 µM) | 0.025 (≈ 0.0414 µM) | ≤ 0.006 | 0.025 (≈ 0.0414 µM) | 0.1 (≈ 0.166 µM) | 0.05 (≈ 0.0828 µM) | 0.05 (≈ 0.0828 µM) | CCON=C(C(=O)NC1C(=O)N2C(C(=O)[O-])=C(C[n+]3ccn4c(SCCO)ccc4c3)CSC12)c1csc(N)n1 (stereo not drawn) [Ex. 9, 7-β-[(Z)-2-(2-aminothiazol-4-yl)-2-ethoxyiminoacetamido]-3-[6-(2-HYDROXYETHYLTHIO)PYRROLO[1,2-a]pyrazinium-2-yl]methyl-3-cephem-4-carboxylate] |
| 0.2 (≈ 0.329 µM) | 0.78 (≈ 1.28 µM) | 12.5 (≈ 20.6 µM) | 0.78 (≈ 1.28 µM) | 0.025 (≈ 0.0411 µM) | 0.1 (≈ 0.165 µM) | 3.13 (≈ 5.15 µM) | ≤ 0.006 | 0.05 (≈ 0.0823 µM) | 0.012 (≈ 0.0197 µM) | ≤ 0.006 | 0.1 (≈ 0.165 µM) | 0.2 (≈ 0.329 µM) | 0.39 (≈ 0.642 µM) | ≤ 0.006 | 0.012 (≈ 0.0197 µM) | 0.025 (≈ 0.0411 µM) | 0.1 (≈ 0.165 µM) | 0.05 (≈ 0.0823 µM) | 0.012 (≈ 0.0197 µM) | Nc1nc(C(=NOCF)C(=O)NC2C(=O)N3C(C(=O)[O-])=C(C[n+]4ccn5c(SCCO)ccc5c4)CSC23)cs1 (stereo not drawn) [Ex. 10, 7-β-[(Z)-2-(2-aminothiazol-4-yl)-2-fluoromethoxyiminoacetamido]-3-[6-(2-hydroxyethylthio)pyrrolo[1,2-a]pyrazinium-2-yl]methyl-3-cephem-4-carboxylate] |

Source: US5593984A, “Cephalosporin derivatives” (Yuhan Corporation, priority 1992, dated 1997)
